In US6949648B2, “Condensed pyrazole derivatives, process for producing the same and use thereof” (Takeda Pharmaceutical Company Limited, priority 2000, dated 2005) one finds melting point data, which are given here for 43 molecules.

SMILES strings stand for the structures.

`COC(=O)c1ccc2[nH]c3c(c(C)nn3-c3ccccn3)c(=O)c2c1` [Example 2-64, Methyl 3-methyl-4-oxo-1-(2-pyridinyl)-4,9-dihydro-1H-pyrazolo[3,4-b]quinoline-6-carboxylate] returned a melting point of 265 to 266 °C.

`CCOc1cccc(-n2nc(C)c3c(Cl)c4cccc(C)c4nc32)n1` [Example 2-128, 4-Chloro-3,8-dimethyl-1-(6-ethoxy-2-pyridinyl)-1H-pyrazolo[3,4-b]quinoline] had a melting point of 151 to 153 °C. Consider `Cc1c(O)nc2c(c(C)nn2-c2ccccn2)c1C` [Example 1-24, 3,4,5-Trimethyl-1-(2-pyridinyl)-1H-pyrazolo[3,4-b]pyridin-6-ol], for which the melting point lay within 226 to 228 °C. The value for `Cc1nn(-c2ccccn2)c2nc3cc(Cl)c(F)cc3c(Cl)c12` [Example 2-96, 4,7-Dichloro-6-fluoro-3-methyl-1-(2-pyridinyl)-1H-pyrazolo[3,4-b]quinoline] was 214 to 215 °C. In turn, `Cc1nn(-c2ccccn2)c2ncc(C(=O)NC3CCCCC3)c(O)c12` [Example 1-8, N-Cyclohexyl-4-hydroxy-3-methyl-1-(2-pyridinyl)-1H-pyrazolo[3,4-b]pyridine-5-carboxamide] had a melting point of more than 300 °C.

`Cc1ccc(-n2nc(C)c3c(Cl)c4ccccc4nc32)nc1` [Example 2-115, 4-Chloro-3-methyl-1-(5-methyl-2-pyridinyl)-1H-pyrazolo[3,4-b]quinoline] yielded a melting point of 197 to 200 °C. With `NC(=O)Cc1nn(-c2ccccn2)c2[nH]c3ccccc3c(=O)c12` [Example 2-178, 2-[4-Oxo-1-(2-pyridinyl)-4,9-dihydro-1H-pyrazolo[3,4-b]quinolin-3-yl]acetamide] the figure was 302 to 305 °C.

For `Cc1ccc(-n2nc(C)c3c(Cl)c4cccc(C)c4nc32)nc1` [Example 2-131, 4-Chloro-3,8-dimethyl-1-(5-methyl-2-pyridinyl)-1H-pyrazolo[3,4-b]quinoline], the melting point was in the range of 165 to 168 °C. `Cc1nn(-c2ccccn2)c2[nH]c3ccsc3c(=O)c12` [Example 2-156, 3-Methyl-1-(2-pyridinyl)-1,8-dihydro-4H-pyrazolo[3,4-b]thieno[2,3-e]pyridin-4-one] yielded a melting point of 228 to 229 °C.

Molecule `CCc1nn(-c2ccccn2)c2nc3cc(F)c(F)cc3c(Cl)c12` [Example 2-200, 4-Chloro-3-ethyl-6,7-difluoro-1-(2-pyridinyl)-1H-pyrazolo[3,4-b]quinoline] gave a melting point of 160 to 161 °C.

In turn, `Cc1nn(-c2cccnc2)c2nc3ccccc3c(N)c12.Cl.Cl` returned a melting point of 234 to 237 °C. The value for `Cc1nn(-c2ccccn2)c2[nH]c3cc(Cl)c(Cl)cc3c(=O)c12` [Example 2-76, 6,7-Dichloro-3-methyl-1-(2-pyridinyl)-1,9-dihydro-4H-pyrazolo[3,4-b]quinolin-4-one] was 303 to 304 °C; that for `Cc1cccnc1-n1nc(C)c2c(Cl)c3cccc(C)c3nc21` [Example 2-133, 4-Chloro-3,8-dimethyl-1-(3-methyl-2-pyridinyl)-1H-pyrazolo[3,4-b]quinoline] was 182 to 185 °C.

As to `Cc1nn(-c2ccccn2)c2nc3c(F)cccc3c(Cl)c12` [Example 2-84, 4-Chloro-8-fluoro-3-methyl-1-(2-pyridinyl)-1H-pyrazolo[3,4-b]quinoline], the melting point was found to be 191 °C. The value for `Cc1cccnc1-n1nc(C)c2c(=O)c3ccccc3[nH]c21` [Example 2-120, 3-Methyl-1-(3-methyl-2-pyridinyl)-1,9-dihydro-4H-pyrazolo[3,4-b]quinolin-4-one] was 184 to 185 °C; that for `Cc1nn(-c2ccncc2)c2nc3ccccc3c(N)c12.Cl.Cl` was 259 to 266 °C.

In turn, `CCc1nn(-c2ccccn2)c2nc3ccccc3c(N)c12.Cl` gave a melting point of 249 to 252 °C. With `COc1cccc(-n2nc(C)c3c(N)c4cccc(C)c4nc32)n1` [Example 2-127, 3,8-Dimethyl-1-(6-methoxy-2-pyridinyl)-1H-pyrazolo[3,4-b]quinolin-4-ylamine] the figure was 134 to 137 °C; with `Cc1cccnc1-n1nc(C)c2c(N)c3c(C)cccc3nc21` [Example 2-124, 3,5-Dimethyl-1-(3-methyl-2-pyridinyl)-1H-pyrazolo[3,4-b]quinolin-4-ylamine], 271 to 274 °C; with `Cc1nn(-c2ccccn2)c2[nH]c3cccc(C(=O)O)c3c(=O)c12` [Example 2-62, 3-Methyl-4-oxo-1-(2-pyridinyl)-4,9-dihydro-1H-pyrazolo[3,4-b]quinoline-5-carboxylic acid], 303 to 306 °C. The molecule `Cc1cc(O)c2c(C)nn(-c3ccccn3)c2n1` [Example 1-18, 3,6-Dimethyl-1-(2-pyridinyl)-1H-pyrazolo[3,4-b]pyridin-4-ol] had a melting point of 175 to 176 °C. `Cc1nn(-c2cccc(Cl)n2)c2[nH]c3ccccc3c(=O)c12` [Example 2-110, 1-(6-Chloro-2-pyridinyl)-3-methyl-1,9-dihydro-4H-pyrazolo[3,4-b]quinolin-4-one] had a melting point of 251 to 253 °C.

Molecule `Cc1nn(-c2ccc(Cl)cn2)c2[nH]c3ccccc3c(=O)c12` [Example 2-114, 1-(5-Chloro-2-pyridinyl)-3-methyl-1,9-dihydro-4H-pyrazolo[3,4-b]quinolin-4-one] gave a melting point of 262 to 263 °C.

The molecule `Cc1cccc2c(N)c3c(C)nn(-c4ccc5ccccc5n4)c3nc12` [Example 2-153, 3,8-Dimethyl-1-(2-quinolinyl)-1H-pyrazolo[3,4-b]quinolin-4-ylamine] registered a melting point of 273 to 276 °C.

`Cc1nn(-c2ccccn2)c2nc3ccc(Cl)cc3c(Cl)c12` [Example 2-70, 4,6-Dichloro-3-methyl-1-(2-pyridinyl)-1H-pyrazolo[3,4-b]quinoline] returned a melting point of 233 to 235 °C. Regarding `Cc1cccc(-n2nc(C)c3c(=O)c4ccccc4[nH]c32)n1` [Example 2-208, 3-Methyl-1-(6-methyl-2-pyridinyl)-1,9-dihydro-4H-pyrazolo[3,4-b]quinolin-4-one], the melting point came to 252 °C. With `Cc1nn(-c2ncccn2)c2[nH]c3ccccc3c(=O)c12` [Example 2-146, 3-Methyl-1-(2-pyrimidinyl)-1,9-dihydro-4H-pyrazolo[3,4-b]quinolin-4-one], the melting point lay within 263 to 264 °C. The value for `Cc1nn(-c2ccccn2)c2[nH]c3ccc([N+](=O)[O-])cc3c(=O)c12` [Example 2-54, 3-Methyl-6-nitro-1-(2-pyridinyl)-1,9-dihydro-4H-pyrazolo[3,4-b]quinolin-4-one] was more than 300 °C; that for `COc1cc2[nH]c3c(c(C)nn3-c3ccccn3)c(=O)c2cc1OC` [Example 2-48, 6,7-Dimethoxy-3-methyl-1-(2-pyridinyl)-1,9-dihydro-4H-pyrazolo[3,4-b]quinolin-4-one] was 238 to 239 °C; that for `Fc1cccc2nc3c(cnn3-c3ccccn3)c(Cl)c12` [Example 2-162, 4-Chloro-5-fluoro-1-(2-pyridinyl)-1H-pyrazolo[3,4-b]quinoline] was 173 to 176 °C. In the case of `Cc1nn(Cc2ccncc2)c2[nH]c3ccccc3c(=O)c12` [Example 2-192, 3-Methyl-1-(4-pyridinylmethyl)-1,9-dihydro-4H-pyrazolo[3,4-b]quinolin-4-one], the melting point lay in the range of 277 to 280 °C.

`Cc1nn(-c2nccs2)c2nc3ccccc3c(N)c12` [Example 2-150, 3-Methyl-1-(1,3-thiazol-2-yl)-1H-pyrazolo[3,4-b]quinolin-4-ylamine] displayed a melting point of 261 to 263 °C. Molecule `COc1ccc2[nH]c3c(c(C)nn3-c3ccccn3)c(=O)c2c1` [Example 2-43, 6-Methoxy-3-methyl-1-(2-pyridinyl)-1,9-dihydro-4H-pyrazolo[3,4-b]quinolin-4-one] showed a melting point of 227 to 229 °C. On to `CCCCNc1c2ccccc2nc2c1c(C)nn2-c1ccccn1` [Example 2-7, N-Butyl-N-[3-methyl-1-(2-pyridinyl)-1H-pyrazolo[3,4-b]quinolin-4-yl]amine], for which the melting point was 97 to 99 °C. With `Cc1cccc2c(Cl)c3c(C)nn(-c4ccccn4)c3nc12` [Example 2-35, 4-Chloro-3,8-dimethyl-1-(2-pyridinyl)-1H-pyrazolo[3,4-b]quinoline] the figure was 170 to 172 °C; with `Cc1cccc(-n2nc(C)c3c(Cl)c4ccccc4nc32)n1` [Example 2-207, 4-Chloro-3-methyl-1-(6-methyl-2-pyridinyl)-1H-pyrazolo[3,4-b]quinoline], 154 °C; with `Cc1nn(Cc2ccccn2)c2nc3ccccc3c(N(C)C)c12` [Example 2-188, N,N-Dimethyl-N-[3-methyl-1-(2-pyridinylmethyl)-1H-pyrazolo[3,4-b]quinolin-4-yl]amine], 166 to 168 °C. As for `Cc1nn(-c2ccccn2)c2nccc(OCc3ccccc3)c12` [Example 1-32, 4-(Benzyloxy)-3-methyl-1-(2-pyridinyl)-1H-pyrazolo[3,4-b]pyridine], the melting point was 108 to 110 °C. The value for `Cc1nn(-c2ccccn2)c2[nH]c3ccc(Cl)cc3c(=O)c12` [Example 2-72, 6-Chloro-3-methyl-1-(2-pyridinyl)-1,9-dihydro-4H-pyrazolo[3,4-b]quinolin-4-one] was 254 to 255 °C. The value for `Cc1ccc2nc3c(c(C)nn3-c3ccccn3)c(N)c2c1.Cl` was 287 to 290 °C.

The molecule `Cc1nn(-c2ccccn2)c2nc3cc(Cl)ccc3c(Cl)c12` [Example 2-73, 4,7-Dichloro-3-methyl-1-(2-pyridinyl)-1H-pyrazolo[3,4-b]quinoline] registered a melting point of 203 to 204 °C. Take `CCCOc1c2cc(F)c(F)cc2nc2c1c(C)nn2-c1ccccn1` [Example 2-94, 6,7-Difluoro-3-methyl-4-propoxy-1-(2-pyridinyl)-1H-pyrazolo[3,4-b]quinoline]: the melting point is 162 to 163 °C. Take `Cc1nn(-c2ccccn2)c2ncc(C(=O)Nc3ccc(F)c(F)c3)c(O)c12` [Example 1-15, N-(3,4-Difluorophenyl)-4-hydroxy-3-methyl-1-(2-pyridinyl)-1H-pyrazolo[3,4-b]pyridine-5-carboxamide]: the melting point is more than 300 °C.

As a reminder, the melting point is the temperature of the solid-liquid transition.
